Measured values published in patent US7985836B2, “Antimicrobial peptides and methods of identifying the same” (priority 2006, dated 2011).
Like-named read-outs stand apart in the source and are kept apart here. Square brackets hold non-standard residues; d marks the D form. Ends that are not written are not given here. Peptide text beside a SMILES is read from it. Phg = N[C@H](C(=O)O)c1ccccc1

Legend:
wild type E. coli K12 = type: cell-based
Procedure: Antibacterial Assays. The antibacterial activity of the LL-37 peptides and its analogues was analyzed using the standard approach of microdilution (Wang et al. (2005) J. Biol. Chem., 280:5803-5811; Yu et al. (2002) J. Pept. Res., 60:1-9). In brief, a small culture of wild type E. coli K12 was grown overnight. A fresh culture was inoculated with a small aliquot of the overnight culture and incubated at 37° C. until the optical density reached the mid-logarithmic stage. The culture (90 μL each) was then diluted to an A600 of 0.001 and partitioned into a 96-well plate with ˜10^6 cells per well. […] Each peptide assay was repeated 3 times. The plate was then further incubated at 37° C. overnight (˜16 hours) and read on an Ultra Microplate Reader at 620 nm (Bio-TEK Instruments; Winooski, Vt.).

drug-resistant KBv = assay: Anticancer/cytotoxicity MTT assay, KBv cells; type: cell-based; conditions: peptide concentration that kills 50% of the cells, 68 hours of exposure, read-out: KBv LC50
Procedure: (§1) Anticancer Assays. Cytotoxicity studies were performed using the calorimetric MTT assays for assessing cell viability (Mark et al. (1999) Life Sci., 64:1941-1953; Hansen et al. (1989) J. Immunol. Methods, 119:203-210). Three cell lines were used, including drug-resistant KBv, drug-sensitive KB, and the nontransformed human brain microvessel endothelial cells (HBMEC). In brief, the cells were seeded onto 96-well plates at a density of 5000 cells per well. The cells were exposed to various concentrations (5-320 μM) of LL-37 peptides (triplicate assays for each) 24 hours after seeding. After 68 hours of exposure, the peptide solution was replaced with fresh media and followed by cytotoxicity analysis using the MTT assay.
(§2) The MTT assay was performed by incubating the cells with 5 mg/mL of 3-[4,5-dimethylthiazol-2-yl]-2,5-dephenyltetrazolium bromide (MTT) for 2 hours at 37° C. The cells were then solubilized in a 50:50 mixture of dimethyl formamide (DMF) and H2O containing 20% SDS (pH 4.7). The plates were read after overnight incubation. Viability is directly proportional to the amount of metabolic conversion of MTT to formazin in the mitochondria of living cells and is assessed by measuring the absorbance at 550 nm using a Microkinetics Reader (Fisher Biotech). Viability is expressed as a percent of control cells receiving only culture media without any peptides. The data from the cytotoxicity studies were plotted using Microsoft Excel, and the LC50 (concentration resulting in 50% reduction in cell viability) and standard deviations were determined for each peptide.

[1] = Cytotoxicity MTT assay, HBMEC; type: cell-based; conditions: normal human cells, peptide concentration that kills 50% of the cells, 68 hours of exposure, read-out: HBMEC LC50
Procedure: as §1, §2

[2] = Analytical reversed-phase HPLC retention time as a measure of hydrophobicity; type: physicochemical; conditions: for tRP, retention time on a reversed-phase HPLC column as a measure of hydrophobicity: Table 1, 1 mL/min, ~25° C.; for tRP, retention time on a reversed-phase HPLC column as a measure of hydrophobicity / tRP, retention time on a reverse-phase column of HPLC as a measure of hydrophobicity: Vydac C18, acetonitrile 5% to 95%; for tRP, retention time on a reverse-phase column of HPLC as a measure of hydrophobicity: Table 4, 1 ml/min
Procedure: Analytical Reversed-Phase HPLC. The retention time of the peptide was measured on an ISCO (Lincoln, Nebr.) HPLC system equipped with a Vydac (Hesperia, Calif.) C18 reversed-phase column (250×4.6 mm) at an ambient temperature of ˜25° C. The peptide was eluted with a linear gradient of acetonitrile (containing 0.1% TFA) from 5% to 95% at a flow rate of 1 mL/min. Peptides were detected by UV absorbance at 215 nm.
Analytical reverse-phase HPLC. The retention time of each peptide was measured on an ISCO HPLC system equipped with aVydac C18 reverse-phase column (250×4.6 mm). The peptide was eluted with a linear gradient of acetonitrile (containing 0.1% TFA) from 5% to 95% at a flow rate of 1 ml/min. Peptides were detected by UV absorbance at 215 nm.

drug-sensitive KB = type: cell-based; conditions: peptide concentration that kills 50% of the cells; MTT, 68 hours of exposure
Procedure: as §1, §2

E. coli strain K12 3000 [3] = conditions: minimum concentration at which E. coli growth is completely inhibited; from Wang et al. (2005) J. Biol. Chem. 280:5803; cited from earlier work
E. coli strain K12 3000 [4] = assay: Antibacterial assay, microdilution MIC (Example 2); type: cell-based; conditions: minimum concentration at which E. coli growth is completely inhibited
Procedure: Antibacterial assay. The antibacterial activity of the peptides was analyzed using the standard microdilution approach (Wang et al. (2005) J. Biol. Chem., 280:5803-5811). In brief, a small culture of E. coli strain K12 3000 was grown overnight. A fresh culture was inoculated with a small aliquot of the overnight culture and incubated at 37° C. until the culture reached the logarithmic stage (A600 ˜0.5, 9×10^8 cells/ml). The culture was then diluted to A600 ˜0.001 and partitioned into a 96-well plate with ˜10^6 cells per well (90 μl each). Then, 10 μl aliquots of the peptide at different concentrations (three assays for each) were added to the cultures, allowing the minimum inhibition concentration (MIC) to be measured. The plate was then further incubated overnight (˜16 hours) at 37° C. and read on an Ultra Microplate Reader at 620 nm (Bio-TEK Instruments).

Escherichia coli D21 = conditions: Escherichia coli D21, previous assays (Johansson 1998; Oren 1999); cited from earlier work
[5] = minimum inhibitory concentration, wild type E. coli K12, overnight (~16 hours) at 37° C.

| Compound | CC50 (drug-resistant KBv) | CC50 at 68 h [1] | retention time on reversed-phase HPLC (hydrophobicity) [2] | tRP, retention time on a reverse-phase column of HPLC as a measure of hydrophobicity [2] | other results |
| --- | --- | --- | --- | --- | --- |
| LLGDFKRIVQRIKDF-NH2 [LL-37(1-4, 17-27), LLGDFKRIVQRIKDF] | > 320 µM | > 320 µM | – | – | E. Coli MIC (wild type E. coli K12; [5]): 250 µM |
| GLFDKLKSLVSDDKK [anchor, bacterial membrane anchor of glucose-specific enzyme IIA of E. coli, reference compound] | – | – | 29.5 min | 29.5 min | tRP, retention time on a reversed-phase HPLC column as a measure of hydrophobicity [2]: 29.5 min |
| FKRIVQRIKDFLR-NH2 [LL-37(17-29), FKRIVQRIKDFLR] | 60 µM | 55 ± 2 µM | – | – | KB LC50 (drug-sensitive KB): 57 ± 3 µM; E. Coli MIC (wild type E. coli K12; [5]): 40 µM |
| FKRIVQRIKDFLRNLV-NH2 [LL-37(17-32), FKRIVQRIKDFLRNLV] | 30 µM | 25 ± 1 µM | – | – | KB LC50 (drug-sensitive KB): 30 ± 1 µM; E. Coli MIC (wild type E. coli K12; K12, 16 h): 20 µM |
| RLFDKIRQVIRKF-NH2 (C-terminus assumed) [LLAA, RLFDKIRQVIRKF] | – | – | 30.8 min | 30.8 min | – |
| GLFDIIKKIAESF [aurein 1.2, antimicrobial and anticancer peptide isolated from the Australian Bell Frog, reference compound] | – | – | 43 min | 43.0 min | tRP, retention time on a reversed-phase HPLC column as a measure of hydrophobicity [2]: 42.0 min; MIC (E. coli strain K12 3000 [3]): 75 µM |
| LLGDFFRKSKEK [LL-37(1-12), LLGDFFRKSKEK] | > 320 µM | > 320 µM | – | – | – |
| IGKEFKRIVQRIKDFLRNLVPRTES [LL-37(13-37)] | 39 µM | 38 ± 3 µM | – | – | KB LC50 (drug-sensitive KB): 40 ± 0 µM; E. Coli MIC (wild type E. coli K12; K12, 16 h): 80 µM |
| GLFDIIKKIAESW-NH2 (C-terminus assumed) [F13W-aurein 1.2, GLFDIIKKIAESW] | – | – | – | 40.5 min | MIC (E. coli strain K12 3000 [4]): 320 µM |
| CC[C@H](C)[C@H](NC(=O)[C@H](CCCCN)NC(=O)[C@H](CCC(=O)O)NC(=O)[C@H](CCCCN)NC(=O)[C@H](CO)NC(=O)[C@H](CCCCN)NC(=O)[C@H](CCCNC(=N)N)NC(=O)[C@H](Cc1ccccc1)NC(=O)[C@H](Cc1ccccc1)NC(=O)[C@H](CC(=O)O)NC(=O)CNC(=O)[C@H](CC(C)C)NC(=O)[C@@H](N)CC(C)C)C(=O)NCC(=O)N[C@@H](CCCCN)C(=O)N[C@@H](CCC(=O)O)C(=O)N[C@@H](Cc1ccccc1)C(=O)N[C@@H](CCCCN)C(=O)N[C@@H](CCCNC(=N)N)C(=O)N[C@H](C(=O)N[C@H](C(=O)N[C@@H](CCC(N)=O)C(=O)N[C@@H](CCCNC(=N)N)C(=O)N[C@H](C(=O)N[C@@H](CCCCN)C(=O)N[C@@H](CC(=O)O)C(=O)N[C@@H](Cc1ccccc1)C(=O)N[C@@H](CC(C)C)C(=O)N[C@@H](CCCNC(=N)N)C(=O)N[C@@H](CC(N)=O)C(=O)N[C@@H](CC(C)C)C(=O)N[C@H](C(=O)N1CCC[C@H]1C(=O)N[C@@H](CCCNC(=N)N)C(=O)N[C@H](C(=O)N[C@@H](CCC(=O)O)C(=O)N[C@@H](CO)C(=O)O)[C@@H](C)O)C(C)C)[C@@H](C)CC)C(C)C)[C@@H](C)CC [LL-37, reference compound] | – | – | – | – | MIC (Escherichia coli D21): 5 to 25 µM; E. Coli MIC (wild type E. coli K12; [5]): 40 µM |
| CC[C@H](C)[C@H](NC(=O)[C@H](CCCCN)NC(=O)[C@H](CCCCN)NC(=O)[C@@H](NC(=O)[C@@H](NC(=O)[C@H](CC(=O)O)NC(=O)[C@H](Cc1ccccc1)NC(=O)[C@H](CC(C)C)NC(=O)CN)[C@@H](C)CC)[C@@H](C)CC)C(=O)N[C@@H](C)C(=O)N[C@@H](CCC(=O)O)C(=O)N[C@@H](CO)C(=O)N[C@H](C(N)=O)c1ccccc1 [F13X-aurein 1.2, GLFDIIKKIAESX] (H-GLFDIIKKIAES[Phg]-NH2; N-terminus and C-terminus assumed) | – | – | 38.3 min | 38.3 min | – |
